Reference: US11510945B2, “Compositions and methods for enhancing ion transporter activity and uses thereof” (THE ROYAL INSTITUTION FOR THE ADVANCEMENT OF …, priority 2018, dated 2022)

Tests used:
GFP-wt-CFTR = assay: Image Correlation Spectroscopy of GFP-wt-CFTR aggregation at the plasma membrane; format: cell-based, human; details: for CFTR clustering / platforms (degree of aggregation) at the plasma membrane: primary human bronchial epithelial cells, fenretinide 1.25 μM 24 h pretreatment, Thaps 2 μM 10-20 min
Protocol: FIGS. 3A-E are confocal images of GFP-wt-CFTR expressed at the plasma membrane of pHBE cells under control conditions (Ctr) (FIG. 3A); after 10-20 min treatment with 2 μM Thapsigargin (FIG. 3B); after treatment with 1.25 μM Fenretinide (FIG. 3C); after treatment with 1.25 μM Fenretinide and Thapsigargin (same conditions as above) (FIG. 3D); or after treatment with 1.25 μM Fenretinide+Thapsigargin (same conditions as above)+Amitriptyline (13 μM for 40 min) (FIG. 3E).
FIG. 3F is a graph showing the quantification of CFTR aggregation and accumulation at the cell surface under control conditions (Ctr), after treatment with Thapsigargin (Thaps), after treatment with Fenretinide (Fen), and after treatment with Fenretinide and Thapsigargin (Fen+Thaps).
It was next tested whether fenretinide and/or zinc could have an effect on the ability of native CFTR-expressing epithelial cells to transport chloride. CFTR is known to become localized in relatively stable platforms during viral infection (Abu-Arish et al., 2015). The formation of such platforms expressing CFTR was measured following treatment with fenretinide. The Image Correlation Spectroscopy technique was used to measure the degree of aggregation of GFP-wt-CFTR at the plasma membrane of primary human bronchial epithelial cells. The degree of aggregation is proportional to the mean number of CFTR channels per cluster or platform. Confocal images of CFTR at the plasma membrane were collected for analysis under control (Ctr), thapsigargin (Thaps), fenretinide (Fen) or a combination of Fen+Thaps. Cells were pretreated or not with fenretinide at 1.25 μM for 24 h before imaging whereas Thaps (2 μM) exposures were acute (10-20 min).

[1] = tested on: cytoplasmic phospholipases (cPLA2); assay: cPLA2 activity in lung epithelial cells (commercial kit); format: cell-based, human
Protocol: FIG. 1 is a graph showing the effect of fenretinide and Zn^2+ treatment on the activity of cytoplasmic phospholipases (cPLA2). Lung epithelial cells were treated with 1.25 μM fenretinide (Fen) and/or 12.5 μM zinc sulfate (Zn^2+) for 12, 24, 48 or 72 hours and the activity of PLA2 was assessed using a commercially available ELISA kit (Abcam, cat. No. ab133090). All statistical analyses were performed using GraphPad™ software (GraphPad, San Diego, Calif., USA). Statistical significance of differences was evaluated using unpaired t-test with Welch's correction. Data are represented as means±SD (*p 0.05, **p 0.01, ***p 0.001, ****p 0.0001). All experiments were done in triplicates (n=3).
The effect of fenretinide (Fen) and/or zinc (Zn^2+) ions on the lipid metabolism in human airway epithelial cells was assessed the modulation of cytoplasmic phospholipases (cPLA2) activity. cPLA2 activity, as evaluated by colorimetric assay, was decreased following fenretinide treatment in a time dependent fashion, starting 24h after treatment (FIG. 1).

[2] = tested on: airway epithelial cells overexpressing the delF508 mutated form of CFTR (delF508/delF508); assay: DHA and AA fatty acid levels in airway epithelial cells overexpressing delF508 CFTR; format: cell-based, human; details: 72h, relative to untreated cells; for DHA levels: 1.25 μM fenretinide and/or 12.5 μM zinc sulfate
Protocol: FIGS. 2A-C are graphs showing the effect of fenretinide, Zn^2+ treatment on the level of DHA (FIG. 2A), AA (FIG. 2B) and their ratio (FIG. 2C) in lung epithelial cells overexpressing a mutant form of CFTR (CFTR-delF508) or native CFTR (wt CFTR). Lung epithelial cells grown as 80% confluent monolayer of were treated for 72h with 1.25 μM fenretinide and/or 12.5 μM zinc sulfate. The levels of AA and DHA were assessed as previously described in Guilbault et al. 2008, 2009. All statistical analyses were performed using GraphPad™ software (GraphPad, San Diego, Calif., USA). Statistical significance of differences was evaluated using unpaired t-test with Welch's correction. Data are represented as means±SD (*p≤0.05, **p≤0.01, ***p≤0.001, ****p≤0.0001). All experiments were done in triplicates (n=3).
It was next assessed whether fenretinide and zinc modulate the levels of omega-3 (docosahexaenoic acid, DHA) and omega-6 (arachidonic acid, AA) fatty acids in airway epithelial cells overexpressing the delF508 mutated form of CFTR (delF508/delF508) or native CFTR (wt CFTR). […] For AA levels, all treatments led to a significant decrease in AA levels in delF508 CFTR-expressing cells (relative to untreated cells), but not in native CFTR-expressing cells.

F508del-CFTR = target: T1, F508del-CFTR (Homo sapiens, UniProt P13569, DEL508-508); assay: Ussing chamber F508del-CFTR conductance across basally permeabilized polarized cells; format: cell-based; details: 1.25 μM Fen alone for 3 days, 1 μM VX-809 last 24h
T1 construct: host or cells: polarized bronchial epithelial cells
T1 sequence (P13569 with tags, fused parts or gaps DEL508-508): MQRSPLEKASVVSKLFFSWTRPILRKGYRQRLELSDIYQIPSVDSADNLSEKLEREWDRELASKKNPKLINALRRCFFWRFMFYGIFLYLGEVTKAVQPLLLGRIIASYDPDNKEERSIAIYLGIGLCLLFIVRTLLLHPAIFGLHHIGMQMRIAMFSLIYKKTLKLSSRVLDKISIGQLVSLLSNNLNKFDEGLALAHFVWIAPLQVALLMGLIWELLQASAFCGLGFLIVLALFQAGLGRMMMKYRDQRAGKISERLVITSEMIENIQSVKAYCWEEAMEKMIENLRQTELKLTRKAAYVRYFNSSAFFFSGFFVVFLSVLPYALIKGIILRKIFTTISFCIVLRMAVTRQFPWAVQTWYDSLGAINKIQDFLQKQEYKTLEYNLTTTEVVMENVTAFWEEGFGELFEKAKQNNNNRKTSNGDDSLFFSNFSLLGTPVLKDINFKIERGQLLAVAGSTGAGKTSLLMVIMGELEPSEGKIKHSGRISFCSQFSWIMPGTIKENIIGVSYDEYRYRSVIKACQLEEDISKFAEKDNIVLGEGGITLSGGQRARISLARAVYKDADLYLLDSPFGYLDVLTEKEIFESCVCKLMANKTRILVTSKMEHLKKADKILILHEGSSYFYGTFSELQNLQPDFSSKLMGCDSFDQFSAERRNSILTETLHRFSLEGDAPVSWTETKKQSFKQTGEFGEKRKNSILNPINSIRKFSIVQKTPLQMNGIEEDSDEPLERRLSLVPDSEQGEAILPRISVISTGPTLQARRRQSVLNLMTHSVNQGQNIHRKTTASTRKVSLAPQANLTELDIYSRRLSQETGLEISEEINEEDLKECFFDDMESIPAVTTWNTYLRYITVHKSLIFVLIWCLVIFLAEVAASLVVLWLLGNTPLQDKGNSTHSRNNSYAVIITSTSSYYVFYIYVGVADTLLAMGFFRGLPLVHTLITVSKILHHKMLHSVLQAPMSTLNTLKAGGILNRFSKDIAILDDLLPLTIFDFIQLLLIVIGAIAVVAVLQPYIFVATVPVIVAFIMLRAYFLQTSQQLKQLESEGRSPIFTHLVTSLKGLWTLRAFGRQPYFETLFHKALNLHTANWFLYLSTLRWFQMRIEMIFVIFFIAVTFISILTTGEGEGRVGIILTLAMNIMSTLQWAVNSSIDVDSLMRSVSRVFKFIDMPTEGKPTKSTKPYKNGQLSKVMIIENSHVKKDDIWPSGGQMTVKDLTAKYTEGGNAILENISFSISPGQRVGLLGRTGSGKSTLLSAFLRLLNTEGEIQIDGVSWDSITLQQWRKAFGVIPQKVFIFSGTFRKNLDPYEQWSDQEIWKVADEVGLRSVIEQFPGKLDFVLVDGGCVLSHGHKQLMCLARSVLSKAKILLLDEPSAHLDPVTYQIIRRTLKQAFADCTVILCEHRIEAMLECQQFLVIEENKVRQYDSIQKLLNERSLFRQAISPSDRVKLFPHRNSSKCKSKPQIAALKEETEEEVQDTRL
Protocol: FIG. 5 is a graph showing the effect of Zinc and/or Fenretinide treatment on F508del-CFTR function after partial rescue by VX-809 (809) in the absence and presence of 50 μM of the potentiator genistein (acts similarly to VX770). Ussing Chambers were used to measure F508del-CFTR conductance by measuring the short-circuit current across basally permeabilized polarized cells in response to forskolin (FSK) or forskolin+genistein (FSK+Gen). Treatment: Cells were treated basally or not with 1.25 μM fenretinide (Fen) or the combination a combination of 1.25 μM Fenretinide and 12.5 μM Zinc (FenZn) for 3 days. 1 μM VX-809 was added bilaterally during the last 24h. Unpaired student t-test was used for statistical analysis.
FIG. 6 is a graph showing the effect of Zinc and/or Fenretinide treatment on F508del-CFTR mediated secretion in the absence of VX-809. Ussing Chambers were used to measure F508del-CFTR functional expression as short-circuit current across polarized and basally permeabilized bronchial epithelial cells in response to forskolin (FSK) or forskolin+genistein (FSK+Gen). Cells were treated basally or not with 1.25 μM Fenretinide (Fen) and/or 12.5 μM Zinc (Zn) for 3 days. […]

C/C=C(/C)C(=O)O[C@H]1C(C)=C2[C@H]([C@@H]1OC(=O)CCCCCCC)[C@@](C)(OC(C)=O)C[C@H](OC(=O)CCC)[C@@]1(O)[C@H]2OC(=O)[C@@]1(C)O [thapsigargin]
CFTR clustering / platforms (degree of aggregation) at the plasma membrane (GFP-wt-CFTR): induces some CFTR platforms

zinc sulfate
cPLA2 activity ([1]; 12.5 μM zinc sulfate in the absence of fenretinide, 72h): significantly increase | cPLA2 activity, effect of zinc added to fenretinide ([1]; 12.5 μM zinc sulfate with 1.25 μM fenretinide, 24h and 48h): potentiate the effect of fenretinide | DHA levels [2]: significant increase | DHA/AA ratio [2]: significant increase

CN(C)CCC=C1c2ccccc2CCc2ccccc21 [Amitriptyline]
Induction of CFTR platform formation by fenretinide+thapsigargin (GFP-wt-CFTR; in the presence of Amitriptyline 13 μM for 40 min): inhibited

CC1=C(/C=C/C(C)=C/C=C/C(C)=C/C(=O)Nc2ccc(O)cc2)C(C)(C)CCC1 [fenretinide, all-trans-N-(4-hydroxyphenyl) retinamide]
cPLA2 activity ([1]; 1.25 μM fenretinide, 12, 24, 48 or 72 hours): decreased | DHA levels [2]: significant increase | DHA/AA ratio [2]: significant increase | CFTR clustering / platforms (degree of aggregation) at the plasma membrane (GFP-wt-CFTR): did not affect CFTR clustering | F508del-CFTR channel function (F508del-CFTR): significant increase
